# Values quoted from earlier work, collected in the CATMoS acute toxicity set (Mansouri et al. 2021).
# “And” between values parts separate entries of the source, which are not always exact repeats. Identical values can stand only once.
# Assay: rat acute oral toxicity
# Settings: in vivo
row,Compound,LD50
1,Cc1cnccc1N,446 mg/kg
2,ClCCO[SiH](OCCCl)OCCCl,190 mg/kg
3,CCCCNC(=N)NC(=N)N,320 mg/kg
4,COc1cc2[nH]c3c(c2cc1OC)CCN1CC2C(C)OC=C(C(=O)OCCN(C)C)C2CC31 (centres undefined),2350 mg/kg
5,c1ccc2c(NC3=NCCS3)cccc2c1,50 mg/kg
6,CC(O)Cn1cnc2c1c(=O)n(C)c(=O)n2C (centres undefined),460 mg/kg
7,CCN(CC)c1ccc(N)c(C)c1,200 mg/kg
8,CC(C)CNC(=O)N1CCNC1=O,3500 mg/kg
9,O=S(=O)(O)c1cccc2c(/N=N/c3ccc(/N=N/c4ccc(Nc5ccccc5)c5c(S(=O)(=O)O)cccc45)c4ccccc34)cccc12,15000 mg/kg
10,CCB(CC)CC,235 mg/kg
11,c1ccc(Nc2ccc(Nc3ccccc3)cc2)cc1,2370 mg/kg
12,CN(SSC(C)(C)C)C(=O)ON=C1SC(C)(C)C(=O)N1C,299 mg/kg
13,CCSCCOc1ccc([N+](=O)[O-])cc1,826 mg/kg
14,CCOC(=O)C1(c2ccccc2)CCN(CCOCC2CCCO2)CC1 (centres undefined),135 mg/kg
15,CCC(C)c1ccc(O)cc1 (centres undefined),2450 mg/kg
16,CC(C)[C@]12CC(=O)[C@H](C)[C@H]1C2,500 mg/kg
17,NC(=O)C1c2ccccc2C=Cc2ccccc21,1800 mg/kg
18,Cc1ccc([N+](=O)[O-])cc1N,574 mg/kg
19,COP(=O)(OC)OC(C)=CC(=O)OCc1ccccc1,56 mg/kg
20,CC(C)(C)c1cc(C(=O)O)cc(C(C)(C)C)c1O,1410 mg/kg
21,O=[N+]([O-])c1cc([N+](=O)[O-])c(Nc2c(Br)cc(Br)cc2Br)c(C(F)(F)F)c1,4.43 mg/kg
22,CNC(=O)Oc1cccc2c1OC(C)(C)O2,40 mg/kg
23,COc1cccc(C2(O)CCCCC2CN(C)C)c1 (centres undefined),228 mg/kg
24,CCOP(=S)(OCC)Oc1cc([N+](=O)[O-])c(Cl)cc1Cl,100 mg/kg

row,Compound,LD50
1,CC(C)(C)C(=O)CC#N,283 mg/kg
2,COc1c(C(C)(C)C)cc([N+](=O)[O-])c(C)c1[N+](=O)[O-],339 mg/kg
3,O=c1[nH]c2cc(Cl)c(Br)cc2o1,500 mg/kg
4,CCCCCCCCS(=O)CCCCl (centres undefined),5660 mg/kg
5,S=C1N=CC=NC(=S)SSSS1,8530 mg/kg
6,CC(CN1c2ccccc2Sc2ccc(S(=O)(=O)N(C)C)cc21)N(C)C (centres undefined),1320 mg/kg
7,CCN(CC)C(=O)[C@]1(c2ccccc2)C[C@@H]1CN,213 mg/kg
8,C=C1CC[C@H](O)C/C1=C/C=C1\CCC[C@]2(C)[C@@H]([C@H](C)CCCC(C)C)CC[C@@H]12,42 mg/kg
9,Clc1ccc(N=Nc2ccc(NCCCN3CCCCC3)c3c2CCCC3)cc1,1120 mg/kg
10,N#Cc1ccccc1Cl,396 mg/kg
11,NC(=O)c1ccc2nc(C(F)(F)F)[nH]c2c1,31.6 mg/kg
12,O=S1(=O)CCC(Br)C1 (centres undefined),215 mg/kg
13,O=C(Cl)CCl,208 mg/kg
14,COc1ccc2c(c1)CCC(N(CCCCOC(=O)c1ccc(OC)c(OC)c1)C(C)C)C2 (centres undefined),1540 mg/kg
15,CCS,682 mg/kg
16,CC=C(C)C(=O)N1CCCc2cc(C)ccc21,2200 mg/kg
17,CN(C)CCC(c1ccccc1)c1ccccn1 (centres undefined),520 mg/kg
18,CCN(CC)C(=O)c1nnn(-c2ccc(N)cc2)c1C,494 mg/kg
19,C=C(C)C(=O)OCCCl,200 mg/kg
20,C=C1C(=O)O[C@@H]2C[C@@H](C)[C@@H]3C=CC(=O)[C@@]3(C)[C@@H](O)[C@H]12,125 mg/kg
21,CCc1c2c(nc3ccc(OC(=O)N4CCC(N5CCCCC5)CC4)cc13)-c1cc3c(c(=O)n1C2)COC(=O)[C@]3(O)CC,867 mg/kg
22,CCOP(=S)(OCC)SCc1cccc([N+](=O)[O-])c1,250 mg/kg
23,CCOC(=O)CSP(=O)(OCC)OCC,45 mg/kg
24,CC1(C)NC(=O)NC1=O,7800 mg/kg

row,Compound,LD50
1,C=CCC(CCN(CC)CC)(C(=O)OCC)c1ccccc1 (centres undefined),200 mg/kg
2,CCSC(=O)COc1ccc(Cl)cc1C,790 mg/kg
3,Cc1nn(-c2cc(NS(C)(=O)=O)c(Cl)cc2Cl)c(=O)n1C(F)F,2860 mg/kg
4,COC(=O)CNC[P@](=O)(O)Oc1ccccc1,4100 mg/kg
5,CN(C)C(CSC#N)CSC#N,125 mg/kg and 82 mg/kg
6,CCCCCCCCSCCO,8530 mg/kg
7,CN(C1CCCCC1)C1CCCCC1,446 mg/kg
8,FC(F)(F)c1nc2c(Cl)ccc(Cl)c2[nH]1,2.61 mg/kg
9,CCOP(=O)(OCC)C(SCC)(P(=O)(OCC)OCC)P(=O)(OCC)OCC,7.25 mg/kg
10,Cc1ccc(N)c(S(=O)(=O)O)c1,11700 mg/kg
11,CCOC(=O)NNc1nncc2ccccc12,318 mg/kg and 598 mg/kg
12,O=C(O)c1cc(N=Nc2ccc(-c3ccc(N=Nc4c(O)ccc(/N=N/c5cc(S(=O)(=O)O)ccc5O)c4O)cc3)cc2)ccc1O,12100 mg/kg
13,CNC(=O)ON=C1CSCCS1,15 mg/kg
14,Fc1c(F)c(F)c2[nH]c(C(F)(F)F)nc2c1F,3.33 mg/kg
15,CC(Cl)(Cl)C(=O)O,3860 mg/kg
16,CCCCCCOc1ccc(NNC=O)cc1,717 mg/kg
17,CO[Si](CCCN=C=O)(OC)OC,878 mg/kg
18,CC(=O)CCC=C(C)C,3500 mg/kg
19,Oc1ccc(-c2ccccc2)cc1CN1CCOCC1,25 mg/kg
20,C=CCCCCCCCCC(=O)O,2500 mg/kg
21,C/C(=C\C(C)CC(C)CC(C)C)C1CC(=O)OC1=O (centres undefined),2550 mg/kg
22,ClCCOCCOCCOCCCl,180 mg/kg
23,O=C(CCl)CCl,20 mg/kg
24,CCCC[N+]1(C)[C@@H]2C[C@@H](OC(=O)[C@H](CO)c3ccccc3)C[C@H]1[C@@H]1O[C@@H]12 (some centres undefined),1040 mg/kg

row,Compound,LD50
1,CCCC1C(=O)N(c2ccccc2)N(c2ccccc2)C1=O,529 mg/kg
2,Cc1oc(=O)oc1COC(=O)[C@@H]1N2C(=O)[C@@H](NC(=O)[C@H](N)c3ccccc3)[C@H]2SC1(C)C,10000 mg/kg
3,CN1CCC(Oc2ccc(N)cc2)(c2ccccc2)CC1,410 mg/kg
4,c1ccc(Nc2cccc3ccccc23)cc1,1620 mg/kg
5,S=C(NC1CCCCC1)NC1CCCCC1,500 mg/kg
6,CC[N+]1(CC)CCCO1,150 mg/kg
7,CC(C)c1noc2nc(C(C)(C)C)ncc12,15400 mg/kg
8,COCCOCCOCCOC(C)=O,11000 mg/kg
9,Oc1ccc(N=Cc2ccccc2)cc1,3500 mg/kg
10,COc1ccc(C(O)(c2cncnc2)C2CC2)cc1 (centres undefined),4500 mg/kg
11,CCC1NC(=O)C2C(Cl)C(Cl)CN2C(=O)C(CO)NC(=O)CC(c2ccccc2)NC(=O)C(CO)NC1=O (centres undefined),5 mg/kg
12,CN(C)C(CSS(=O)(=O)O)CSS(=O)(=O)O,333 mg/kg
13,CC(=O)OCC=Cc1ccccc1,3300 mg/kg
14,OCC1(CO)CC=CCC1,1750 mg/kg
15,COc1ccc2c(c1OC)C(=O)O[C@@H]2[C@H]1c2c(cc3c(c2OC)OCO3)CCN1C,1520 mg/kg
16,Nc1nc2cc(I)ccc2o1,1000 mg/kg
17,CN1CCC(c2c[nH]c3ccccc23)C1 (centres undefined),413 mg/kg
18,N=C(O)CCC/N=C(\c1ccc(Cl)cc1)c1cc(F)ccc1O,1350 mg/kg
19,CC(=O)NO,4800 mg/kg
20,CNC(=O)Oc1ccccc1C1OCC(C)O1 (centres undefined),110 mg/kg
21,COC(=O)C1CCCCC1,3880 mg/kg
22,O=C(c1cccnc1)N1CCN=C1Nc1c(Cl)cccc1Cl,80 mg/kg
23,C=COCCOC(=O)C(=C)C,5940 mg/kg
24,CC(C)COC(=O)COc1ccc(Cl)cc1Cl,300 mg/kg

row,Compound,LD50
1,CCOc1ccccc1C(N)=O,2200 mg/kg
2,CC(C)(N=C=O)c1cccc(C(C)(C)N=C=O)c1,4600 mg/kg
3,CC(=O)Nc1cccc(N=Nc2ccc(N(C)C)cc2)c1,5910 mg/kg
4,Nc1nc2ccc(Br)cc2o1,500 mg/kg
5,CCCCCOC(=O)CCC,12200 mg/kg
6,COCC(C)N(C(=O)CCl)c1c(C)csc1C (centres undefined),397 mg/kg
7,CC(=NO)C(C)(O)C#Cc1ccccc1 (centres undefined),3120 mg/kg
8,Cc1ccc2oc(=O)ccc2c1,1680 mg/kg
9,Brc1cc2c(cc1Br)Oc1cc(Br)c(Br)cc1O2,0.1 mg/kg
10,NC(=S)SSC(N)=S,1950 mg/kg
11,COCCl,500 mg/kg
12,Oc1ccc(C2=CCCCC2)cc1,2830 mg/kg
13,ClC1=C(Cl)C2(Cl)C3C4OC(C5OC54)C3C1(Cl)C2(Cl)Cl (centres undefined),142 mg/kg
14,O=C1OCC2C1C1(Cl)C(Cl)=C(Cl)C2(Cl)C1(Cl)Cl (centres undefined),105 mg/kg
15,CC(C)N(N=O)C(C)C,850 mg/kg
16,OCC1OC(N2CCN(C3OC(CO)C(O)C(O)C3O)CC2)C(O)C(O)C1O (centres undefined),30000 mg/kg
17,CCC(CC)c1cccc(OC(=O)NC)c1,87 mg/kg
18,CCN(CC)C(=O)c1cc(=O)c2ccccc2o1,4000 mg/kg
19,O=C(CCC(=O)OC1CCCCC1)OC1CCCCC1,12000 mg/kg
20,c1ccc(-c2nnn[nH]2)cc1,1900 mg/kg
21,Clc1ccc2c(c1)C(N1CCNCC1)=Nc1ccccc1O2,313 mg/kg
22,O=NN1CN(N=O)CN(N=O)C1,160 mg/kg
23,Cc1c(Cl)c([N+](=O)[O-])c2nc(C(F)(F)F)[nH]c2c1[N+](=O)[O-],105 mg/kg
24,COc1cc(OC)cc(OCCO)c1,4050 mg/kg

row,Compound,LD50
1,CCC(O)CO (centres undefined),16000 mg/kg
2,C=CC[N@@+]12CC[C@@]34c5ccccc5N5C=C6[C@H]7C[C@H]8[C@@]9(CC[N@@+]8(CC=C)C/C7=C/CO)c7ccccc7N(C=C([C@@H](C[C@@H]31)/C(=C\CO)C2)[C@H]54)[C@@H]69,27.6 mg/kg
3,Cc1c(Cl)c(=O)oc2cc(OP(=O)(OCCCCl)OCCCCl)ccc12,211 mg/kg
4,CCCN(N=O)C(N)=O,480 mg/kg
5,COc1c(Cl)c(Cl)c(OC)c2[nH]c(C(F)(F)F)nc12,100 mg/kg
6,O=Cc1cccc(Oc2ccccc2)c1,1220 mg/kg
7,CCOC(=S)C=Cc1ccc(Cl)cc1,950 mg/kg
8,C=CC(CCCCC)OC(C)=O (centres undefined),850 mg/kg
9,CCOC(=O)CCC(=O)CC1(O)C2(Cl)C3(Cl)C4(Cl)C(Cl)(Cl)C5(Cl)C3(Cl)C1(Cl)C5(Cl)C42Cl (centres undefined),240 mg/kg
10,Cc1ccc(N)cc1Cl,655 mg/kg
11,CCCCCCCCCCCCCCCCCC(=O)Cl,7500 mg/kg
12,CCCCC(O)(Cn1cncn1)c1ccc(Cl)cc1Cl (centres undefined),2190 mg/kg
13,O=C1C(Cc2ccccc2)C(=O)N(c2ccccc2)N1c1ccccc1,297 mg/kg
14,C#CC(C)(C)NC(=O)C=Cc1cc(OC)c(OC)c(OC)c1,570 mg/kg
15,OC(CCl)CN1CCCN(CC(O)CCl)c2ccccc21 (centres undefined),750 mg/kg
16,CC(=O)Oc1c(C(C)(C)C)cc([N+](=O)[O-])c(C)c1[N+](=O)[O-],42 mg/kg
17,CCC(CO)NC(=O)C1C=C2c3cccc4c3c(cn4C)CC2N(C)C1 (centres undefined),200 mg/kg
18,O=C(CO)c1coc(=O)c2c(O)cccc12,250 mg/kg
19,CC(C)c1cccc(C(C)C)c1O,500 mg/kg
20,CC(C)(C)[C@@H](O)/C(=C\c1ccc(Cl)cc1Cl)n1cncn1,474 mg/kg
21,CC(C)N1C(=O)N(c2ccccc2)CSC1=NC(C)(C)C,2200 mg/kg
22,CCOC(=O)C(=O)NP(=O)(OC)SC (centres undefined),501 mg/kg
23,CCCCSC(=O)Oc1c(C(C)CC)cc([N+](=O)[O-])cc1[N+](=O)[O-] (centres undefined),147 mg/kg
24,CCOP(=O)(OCC)SCS(=O)CC (centres undefined),1 mg/kg
